# Measurements reported in ChEMBL document CHEMBL2440027, “Further SAR studies on bicyclic basic merbarone analogues as potent antiproliferative agents” (Bioorg Med Chem, 2013).
# Experiments:
# COLO 205 = test: Growth inhibition of human COLO205 cells after 48 hrs by sulforhodamine B assay; format: functional; settings: COLO 205, 48 h
# HCT-15 = test: Growth inhibition of human HCT15 cells assessed as cell growth at 10 uM after 48 hrs by sulforhodamine B assay relative to control; format: functional; settings: HCT-15, 48 h, read-out: Activity
# SK-MEL-5 = test: Growth inhibition of human SK-MEL-5 cells assessed as cell growth at 10 uM after 48 hrs by sulforhodamine B assay relative to control; format: functional; settings: SK-MEL-5, 48 h, read-out: Activity
# UACC-62 = test: Growth inhibition of human UACC62 cells after 48 hrs by sulforhodamine B assay; format: functional; settings: UACC-62, 48 h
# HT-29 = test: Growth inhibition of human HT-29 cells assessed as cell growth at 10 uM after 48 hrs by sulforhodamine B assay relative to control; format: functional; settings: HT-29, 48 h, read-out: Activity
# KM12 = test: Growth inhibition of human KM12 cells after 48 hrs by sulforhodamine B assay; format: functional; settings: KM12, 48 h
# MCF7 [1] = test: Growth inhibition of human MCF7 cells assessed as cell growth at 10 uM after 48 hrs by sulforhodamine B assay relative to control; format: functional; settings: MCF7, 48 h, read-out: Activity
# U-251 [2] = test: Growth inhibition of human U251 cells assessed as cell growth at 10 uM after 48 hrs by sulforhodamine B assay relative to control; format: functional; settings: U-251, 48 h, read-out: Activity
# SF-539 = test: Growth inhibition of human SF539 cells assessed as cell growth at 10 uM after 48 hrs by sulforhodamine B assay relative to control; format: functional; settings: SF-539, 48 h, read-out: Activity
# NCI-H226 = test: Growth inhibition of human NCI-H226 cells after 48 hrs by sulforhodamine B assay; format: functional; settings: NCI-H226, 48 h
# A498 = test: Growth inhibition of human A498 cells assessed as cell growth at 10 uM after 48 hrs by sulforhodamine B assay relative to control; format: functional; settings: A498, 48 h, read-out: Activity
# A549 = test: Growth inhibition of human A549/ATCC cells after 48 hrs by sulforhodamine B assay; format: functional; settings: A549, 48 h
# OVCAR-4 = test: Growth inhibition of human OVCAR4 cells after 48 hrs by sulforhodamine B assay; format: functional; settings: OVCAR-4, 48 h
# RPMI-8226 = test: Growth inhibition of human RPMI8226 cells assessed as cell growth at 10 uM after 48 hrs by sulforhodamine B assay relative to control; format: functional; settings: RPMI-8226, 48 h, read-out: Activity
# CAKI-1 = test: Growth inhibition of human CAKI-1 cells after 48 hrs by sulforhodamine B assay; format: functional; settings: CAKI-1, 48 h
# SF-268 = test: Growth inhibition of human SF268 cells after 48 hrs by sulforhodamine B assay; format: functional; settings: SF-268, 48 h
# TK-10 = test: Growth inhibition of human TK10 cells after 48 hrs by sulforhodamine B assay; format: functional; settings: TK-10, 48 h
# M14 = test: Growth inhibition of human M14 cells assessed as cell growth at 10 uM after 48 hrs by sulforhodamine B assay relative to control; format: functional; settings: M14, 48 h, read-out: Activity
# OVCAR-8 = test: Growth inhibition of human OVCAR8 cells after 48 hrs by sulforhodamine B assay; format: functional; settings: OVCAR-8, 48 h
# LOX IMVI = test: Growth inhibition of human LOXIMVI cells after 48 hrs by sulforhodamine B assay; format: functional
# SW-620 = test: Growth inhibition of human SW620 cells after 48 hrs by sulforhodamine B assay; format: functional; settings: SW-620, 48 h
# MOLT-4 = test: Growth inhibition of human MOLT4 cells assessed as cell growth at 10 uM after 48 hrs by sulforhodamine B assay relative to control; format: functional; settings: MOLT-4, 48 h, read-out: Activity
# K562 = test: Growth inhibition of human K562 cells assessed as cell growth at 10 uM after 48 hrs by sulforhodamine B assay relative to control; format: functional; settings: K562, 48 h, read-out: Activity
# SN12C = test: Growth inhibition of human SN12C cells after 48 hrs by sulforhodamine B assay; format: functional
# OVCAR-5 = test: Growth inhibition of human OVCAR5 cells after 48 hrs by sulforhodamine B assay; format: functional; settings: OVCAR-5, 48 h
# U-251 [3] = test: Growth inhibition of human U251 cells after 48 hrs by sulforhodamine B assay; format: functional; settings: U-251, 48 h
# Malme-3M = test: Growth inhibition of human MALME-3M cells after 48 hrs by sulforhodamine B assay; format: functional
# UACC-257 = test: Growth inhibition of human UACC257 cells after 48 hrs by sulforhodamine B assay; format: functional; settings: UACC-257, 48 h
# MDA-MB-231 = test: Growth inhibition of human MDA-MB-231 cells after 48 hrs by sulforhodamine B assay; format: functional; settings: MDA-MB-231, 48 h
# [4] = Growth inhibition of human Hs 578T cells after 48 hrs by sulforhodamine B assay; format: functional
# MCF7 [5] = test: Growth inhibition of human MCF7 cells after 48 hrs by sulforhodamine B assay; format: functional; settings: MCF7, 48 h
# MT4 = test: Cytotoxicity against human MT4 cells; format: functional, cell-based
# NCI-H23 = test: Growth inhibition of human NCI-H23 cells assessed as cell growth at 10 uM after 48 hrs by sulforhodamine B assay relative to control; format: functional; settings: NCI-H23, 48 h, read-out: Activity
# [6] = Growth inhibition of human HCC2998 cells assessed as cell growth at 10 uM after 48 hrs by sulforhodamine B assay relative to control; format: functional; settings: HCC 2998, 48 h, read-out: Activity
# [7] = read-out: LC50 (the source's name)
structure (smiles),measurement,setting,value
CN(C)CCNc1nc2c(c(=N)n1-c1ccccc1)c(=S)n(-c1ccccc1)c(=S)n2-c1ccccc1,GI50,COLO 205,1.6 µM
same,TGI,COLO 205,3.8 µM
same,CC50,COLO 205; [7],9.1 µM
same,growth at 10 µM,HCT-15,18.8%
same,growth at 10 µM,SK-MEL-5,-98.8%
same,GI50,UACC-62,1.8 µM
same,TGI,UACC-62,3.5 µM
same,CC50,UACC-62; [7],6.6 µM
same,growth at 10 µM,HT-29,-35.7%
same,GI50,KM12,4.3 µM
same,LC50,KM12,49.9 µM
same,TGI,KM12,14.6 µM
same,growth at 10 µM,MCF7 [1],17.9%
same,growth at 10 µM,U-251 [2],2.1%
same,growth at 10 µM,SF-539,-86.9%
same,GI50,NCI-H226,11.6 µM
same,LC50,NCI-H226,59.5 µM
same,TGI,NCI-H226,26.3 µM
same,growth at 10 µM,A498,40.3%
same,GI50,A549,4.1 µM
same,LC50,A549,70.4 µM
same,TGI,A549,18.6 µM
same,GI50,OVCAR-4,3.1 µM
same,TGI,OVCAR-4,10.8 µM
same,growth at 10 µM,RPMI-8226,-4.62%
same,GI50,CAKI-1,3.6 µM
same,LC50,CAKI-1,72 µM
same,TGI,CAKI-1,17.6 µM
same,GI50,SF-268,4.1 µM
same,LC50,SF-268,45.6 µM
same,TGI,SF-268,15.3 µM
same,GI50,TK-10,3.5 µM
same,TGI,TK-10,14.3 µM
same,CC50,TK-10; [7],48.8 µM
same,growth at 10 µM,M14,-84.4%
same,GI50,OVCAR-8,4.1 µM
same,TGI,OVCAR-8,15.7 µM
same,CC50,OVCAR-8; [7],58.7 µM
same,GI50,LOX IMVI,1.4 µM
same,LC50 (concentration killing 50% of cells),LOX IMVI,5.3 µM
same,TGI,LOX IMVI,2.7 µM
same,GI50,SW-620,2.1 µM
same,LC50,SW-620,18.8 µM
same,TGI,SW-620,5.1 µM
same,growth at 10 µM,MOLT-4,3.92%
same,growth at 10 µM,K562,-11.4%
same,GI50,SN12C,6.2 µM
same,TGI,SN12C,19.9 µM
same,CC50,SN12C; [7],48 µM
same,GI50,OVCAR-5,12.1 µM
same,TGI,OVCAR-5,29.5 µM
same,CC50,OVCAR-5; [7],72.1 µM
same,GI50,U-251 [3],1.5 µM
same,TGI,U-251 [3],3.4 µM
same,CC50,U-251 [3]; [7],7.8 µM
same,GI50,Malme-3M,2.6 µM
same,TGI,Malme-3M,5 µM
same,CC50,Malme-3M; [7],9.5 µM
same,GI50,UACC-257,1.7 µM
same,TGI,UACC-257,3.6 µM
same,CC50,UACC-257; [7],7.5 µM
same,GI50,MDA-MB-231,1.8 µM
same,TGI,MDA-MB-231,5.6 µM
same,CC50,MDA-MB-231; [7],24.7 µM
same,GI50,[4],2.3 µM
same,TGI,[4],7.7 µM
same,CC50,[4]; [7],40 µM
same,GI50,MCF7 [5],2.2 µM
same,TGI,MCF7 [5],10.9 µM
same,CC50,MCF7 [5]; [7],48.8 µM
same,IC50,MT4,8.4 µM
same,growth at 10 µM,NCI-H23,67.6%
same,growth at 10 µM,[6],-39.6%
